The values that follow are results of earlier work, collected in patent US20220047626A1, “COMPOSITION OF A SPRAY FORMULA TO CONTROL MASTITIS IN BOVINES” (priority 2018, published 2022).

The conditions of this data set: stated in the description, no method given.
By viscosity is commonly meant the resistance of a fluid to flow. In the case of `OCC(O)CO` [glycerin], the viscosity was 950 cP.

Take `OC[C@@H](O)[C@@H](O)[C@H](O)[C@@H](O)CO` [sorbitol]: the viscosity was 200 cP.

In the case of `CC(O)CO` (stereo not drawn) [propylene glycol], the viscosity was 52 cP.
